This is an account of results in ChEMBL document CHEMBL1130557, “Synthesis and biological evaluation of 14-alkoxymorphinans. 14.1 14-ethoxy-5-methyl substituted indolomorphinans with opioid receptor selectivity” (Bioorg Med Chem Lett, 1997).

Assay [1] addresses Kappa-type opioid receptor (Rattus norvegicus, UniProt P34975). Briefly: Compound was evaluated for the binding affinity towards Opioid receptor kappa 1 in rat brain homogenates using [3H]U-69593 as radioligand. The format is tissue-based.
Assay [2] concerns the target T1, Delta-type opioid receptor (Rattus norvegicus, UniProt P33533). Put plainly: Compound was evaluated for the binding affinity towards Opioid receptor delta 1 in rat brain homogenates using [3H]DIDI as radioligand. The format is tissue-based.
Assay [3] concerns the target T1, Delta-type opioid receptor. Briefly: Compound was evaluated for the binding affinity towards Opioid receptor delta 1 in rat brain homogenates using [3H]naltrindole as radioligand. The format is tissue-based.
Assay [4] concerns the target Mu-type opioid receptor (Rattus norvegicus, UniProt P33535). Put plainly: Compound was evaluated for the binding affinity towards mu opioid receptor in rat brain homogenates using [3H]DAMGO as radioligand. The format is tissue-based.
For assay [5], the species on record is Mus musculus. Briefly: Compound was evaluated for the percent inhibition of electrically evoked twitch height at 10 uM concentration in mouse vas deferens (MVD). The format is functional.
Assay [6] has as its target Kappa-type opioid receptor (Mus musculus) (UniProt P33534).
Description: Tested for antagonist activity against Opioid receptor kappa 1 in mouse vas deferens preparation by using C1977 as antagonist
For assay [7], the species on record is Cavia porcellus. Put plainly: Compound was evaluated for the percent inhibition of electrically evoked twitch height at 10 uM concentration in guinea pig ileum (GPI). It counts as functional.
The species entered for assay [8] is Cavia porcellus. Briefly: Compound was evaluated for the percent inhibition of twitch height at 10 uM concentration in guinea pig ileum assay. The format is functional.

pKi: −log10 of the molar value.

Sequence of Mu-type opioid receptor (P33535 whole entry): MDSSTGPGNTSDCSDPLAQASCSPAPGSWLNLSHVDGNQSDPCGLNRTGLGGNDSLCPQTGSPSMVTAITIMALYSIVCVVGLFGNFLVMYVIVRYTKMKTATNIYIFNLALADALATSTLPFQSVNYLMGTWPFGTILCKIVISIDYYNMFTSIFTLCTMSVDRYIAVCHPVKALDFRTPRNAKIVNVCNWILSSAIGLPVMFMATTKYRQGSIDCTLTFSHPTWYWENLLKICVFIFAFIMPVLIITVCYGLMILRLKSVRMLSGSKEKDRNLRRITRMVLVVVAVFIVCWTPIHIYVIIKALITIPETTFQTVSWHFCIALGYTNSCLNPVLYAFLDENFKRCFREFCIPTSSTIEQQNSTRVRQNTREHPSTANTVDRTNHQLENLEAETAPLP
Sequence of Kappa-type opioid receptor (P34975 whole entry): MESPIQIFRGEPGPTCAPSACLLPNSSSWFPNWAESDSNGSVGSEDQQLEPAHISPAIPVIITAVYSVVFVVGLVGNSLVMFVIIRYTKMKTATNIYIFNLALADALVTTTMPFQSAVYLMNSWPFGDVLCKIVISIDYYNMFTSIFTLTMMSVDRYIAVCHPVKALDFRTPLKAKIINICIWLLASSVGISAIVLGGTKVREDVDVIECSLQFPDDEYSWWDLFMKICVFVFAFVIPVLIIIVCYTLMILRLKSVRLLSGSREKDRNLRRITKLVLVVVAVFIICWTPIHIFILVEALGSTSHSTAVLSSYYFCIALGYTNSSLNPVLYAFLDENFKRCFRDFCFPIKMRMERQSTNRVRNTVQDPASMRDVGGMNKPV
T1 sequence (P33533 whole entry): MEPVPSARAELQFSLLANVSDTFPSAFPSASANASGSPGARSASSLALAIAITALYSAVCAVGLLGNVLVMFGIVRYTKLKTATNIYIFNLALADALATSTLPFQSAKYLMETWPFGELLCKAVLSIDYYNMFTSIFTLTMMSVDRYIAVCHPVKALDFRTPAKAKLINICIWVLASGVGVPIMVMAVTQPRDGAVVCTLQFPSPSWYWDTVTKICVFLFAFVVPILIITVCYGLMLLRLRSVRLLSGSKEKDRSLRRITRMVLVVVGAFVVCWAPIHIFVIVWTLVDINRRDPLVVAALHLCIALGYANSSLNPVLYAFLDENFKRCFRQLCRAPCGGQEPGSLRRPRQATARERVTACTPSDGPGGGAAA
Sequence of Kappa-type opioid receptor (Mus musculus) (P33534 whole entry): as the sequence (P34975 whole entry) above, with E11D, A17S, P51S, V308A counted along it

As usually defined, the pKi is −log10 of the Ki, conventionally taken in molar units. The term inhibition denotes the percentage by which the read-out fell short of the control. A higher inhibition goes with a strong effect. On to `CCO[C@@]12Cc3c([nH]c4ccccc34)[C@]3(C)Oc4c(O)ccc5c4[C@@]31CCN(CC1CC1)C2C5`, for which the pKi was 7.23 in assay [1], 7.85 in assay [2], 9.11 in assay [3] and 7.41 in assay [4]. Also, the inhibition at 10 µM in assay [5] amounted to 23%; in assay [7], 32%. The compound further had a Ke in assay [6] of 529 nM.

Consider `Oc1ccc2c3c1O[C@H]1c4[nH]c5ccccc5c4C[C@@]4(O)[C@@H](C2)N(CC2CC2)CC[C@]314` [NALTRINDOLE], for which the pKi in assay [2] is 10.05; in assay [3] it was 9.48.

On to `C=CCN1CC[C@]23c4c5ccc(O)c4O[C@@]2(C)c2[nH]c4ccccc4c2C[C@@]3(OCC)[C@H]1C5`, for which the pKi in assay [1] was 6.12; in assay [2] it was 7.52; in assay [3], 7.97; in assay [4], 6.18.

As to `CCO[C@@]12Cc3c([nH]c4ccccc34)[C@]3(C)Oc4c(O)ccc5c4[C@@]31CCN(C)[C@@H]2C5`, the pKi was 6.54 in assay [1], 8.06 in assay [2], 8.24 in assay [3] and 6.15 in assay [4]. In addition, in assay [8], the inhibition at 10 µM turned out to be 21%.
